Results: patent publication US8629284B2, “Chemical compounds” (Syngenta Crop Protection, LLC, priority 2008, dated 2014)

Key:
Myzus persicae [1] = assay: B2: Myzus persicae (green peach aphid), mixed population, feeding/residual contact activity, preventive; format: in vivo; settings: foliar, 144 h, sunflower leaf discs sprayed with 200 ppm, 6 days incubation, read-out: control of Myzus persicae (mortality)
Protocol: B2: Myzus persicae (green peach aphid) (mixed population, feeding/residual contact activity, preventive)
Sunflower leaf discs were placed on agar in a 24-well microtiter plate and sprayed with test solutions of 200 ppm. After drying, the leaf discs were infested with an aphid population of mixed ages. After an incubation period of 6 days, samples were checked for mortality and special effects (e.g. phytotoxicity).

Myzus persicae [2] = assay: B3: Myzus persicae (green peach aphid), mixed population, systemic/feeding activity, curative; format: in vivo; settings: 144 h, roots of infested pea seedlings in test solution of 24 ppm, 6 days after introduction, read-out: control of Myzus persicae (mortality)
Excerpt: B3: Myzus persicae (green peach aphid) (mixed population, systemic/feeding activity, curative)
Roots of pea seedlings, infested with an aphid population of mixed ages, were placed directly in the test solutions of 24 ppm. 6 days after introduction, samples were checked for mortality and special effects on the plant.

Row | SMILES | mortality at 200 ppm (Myzus persicae [1]) [%] | mortality at 24 ppm (Myzus persicae [2]) [%]
1 | CCNC1=NS(=O)(=O)c2cccc(F)c21 [Compound P1.15, N-Ethyl-4-fluoro-1,2-benzisothiazol-3-amine 1,1-dioxide] | ≥ 65 | ≥ 80
2 | N=C1c2c(F)cccc2S(=O)(=O)N1CC1CC1 [Compound P2.3, 4-Fluoro-2-cyclopropylmethyl-1,2-benzisothiazol-3(2H)-imine 1,1-dioxide] | – | ≥ 80
